Data reported in patent EP2703005A1, “Inhibitors of alpha6 Integrin/E-Cadherin Complex” (Università Degli Studi Di Torino, priority 2012, dated 2014).

Experiments:
[1] = tested on: U293 cells stably overexpressing E-cadherin, α6 integrin or both; test: Cell proliferation assay (crystal violet); format: cell-based, human; conditions: 100 µM peptide, 10% FCS, versus control peptide
From the text: Preparation of cells stably overexpressing the MTS-targeted proteins. The cDNA of FLAG-tagged human angiopoietin-like 6, inserted into pcDNA3.1 (+).Neo vector (pcDNA3.ANGL6), was a gift from Dr. Y. Oike (Japan Science and Technology Agency, Japan (Minn et al., 2007, Proc Natl Acad Sci USA, 104:6740-6745); the cDNA of human E-cadherin, cloned into a pcDNA3.1 (+). Neo vector (pcDNA3.CAD1) was a gift from Dr. C. Gottardi (North Western University Medical School, Chicago, IL (Bos, et al. 2009, Nature 459:1005-1009); the cDNA of β4 integrin, cloned into a PRK5 plasmid (pRK5.ITB4), was purchased from Addgene (Cambridge, MA); the cDNA of human α6A integrin, inserted in pLXSN plasmid (pLα6SN (Kuo et al. 1995, Proc Natl Acad Sci USA, 92:12085-12089), was a gift of Dr. A. Magrelli (La Sapienza University, Rome, Italy). The latter was PCR-amplified with the following primer pair: • 5'-[…]-3' (SEQ ID No 28) and • 5'-[…]-3' (SEQ ID No 29) and subcloned into a pcDNA3.1 (+). […]
To test the effects of peptides on cell proliferation, we seeded 2x10^4 cells per well in a 24-well plate, in the presence of either control or […] peptide (100 µM). […] Cell growth was evaluated by absorbance at 590 nm in a microplate reader (Perkin Elmerm Waltham, MA). A calibration curve was set up with known numbers of cells and a linear correlation between absorbance and cell counts was established up to 5x10^5 cells/well.

[2] = target: T1, β4 integrin (Homo sapiens, UniProt P16144+P23229); test: Affinity purification of liver metastasis lysates on column-immobilized peptide, ELISA for integrin subunits; format: binding; conditions: lysates of 7 pooled human liver metastases, versus salt and control peptide fractions
T1 construct: from tissue; host or cells: 7 pooled human liver metastases secondary to CRC
Method: Validation of MTS-phage targets. Binding of single phage clones on whole cells was performed with a 10^9 TU input of each phage on 5x10^5 suspended cells in binding medium as described (Chambers et al. 2002. Nat Rev Cancer, 2:563-572). For overlay binding experiments, 5 x10^9 TU/ml of each phage was incubated with 10 µm tissue sections of OCT-frozen tissues and detected as described , with the EnVision system (DAKO) and 3-amino-9-ethylcarbazole (AEC) as substrate (Arap et al 2002, Nat Med, 8:121-127; Padua et al. 2008, Cell, 133:66-77). Phage overlay images were acquired with an EC3 Leica camera (Leica Microsystems, Milan, Italy). […] Protein amounts in collected fractions were followed by reading their OD at 280 nm, and selected fractions were concentrated by the use of Microcon centrifugal filter devices with cut-off 10,000 (Millipore) to remove residual synthetic peptides. Proteins were quantified with the Coomassie (Bradford) Protein Assay Kit (Pierce), and 500 ng of each sample was evaluated for the presence of specific integrin subunits with a standard ELISA assay. In parallel, the relative amount of targeted proteins was assessed by phage binding as described (66), on 2 µg of each sample and with an input of 10^9 TU of fd-tet or […]-phage. […]

[3] = tested on: HT-29; test: Liver adhesion assay on frozen sections of grossly normal human liver; format: cell-based; conditions: 30 minutes, versus control peptide
Method: (§1) Adhesion, proliferation, and migration assays. All the described in vitro tests were performed at least in triplicate. For investigation of cell adhesion to peptides and proteins, 1 µg of each substrate was incubated per well of a 96 well-plate for 1 hour at 37°C. After a blocking step in IMDM, 2% FCS for 1 hour at 37°C, 10^4 cells were allowed to adhere for 1 hour at 37°C. Samples were washed gently in PBS, and cells were fixed in 8% glutaraldehyde and stained in 0.25% crystal violet in 10% methanol. For tissue adhesion, OCT-frozen grossly normal liver samples were cut into 10 µm sections. Tissues were blocked in IMDM, 2% FCS for 30 minutes at 37°C, followed by incubation with 5x10^4 cells in 5% CO2 at 37°C, for the indicated periods of time. Samples were washed 4 times in the same medium and once in PBS, fixed in 4% para-formaldehyde, and stained with hematoxylin (BioOptica). Adhered cells were counted manually under a light microscope.

[4] = tested on: NCI-H630 cells; test: as above; format: cell-based; conditions: liver sections from 27 patients, 30 minutes, versus control peptide
Method: as §1

[5] = tested on: HCT-116 cells; test: as above; format: cell-based; conditions: non-metastatic cells with very low levels of the receptor proteins; 30 minutes
Method: as §1

[6] = tested on: HCT-116m; test: as above; format: cell-based; conditions: 30 minutes, versus control peptide
Method: as §1

[7] = tested on: DLD-1; test: as above; format: cell-based; conditions: 30 minutes, versus control peptide
Method: as §1

[8] = tested on: SW-48; test: as above; format: cell-based; conditions: 30 minutes, versus control peptide
Method: as §1

[9] = tested on: U293 cells transduced with α6 integrin, E-cadherin or both; test: as above; format: cell-based; conditions: 30 minutes, versus control peptide
From the text: Preparation of cells stably overexpressing the MTS-targeted proteins. The cDNA of FLAG-tagged human angiopoietin-like 6, inserted into pcDNA3.1 (+).Neo vector (pcDNA3.ANGL6), was a gift from Dr. Y. Oike (Japan Science and Technology Agency, Japan (Minn et al., 2007, Proc Natl Acad Sci USA, 104:6740-6745); the cDNA of human E-cadherin, cloned into a pcDNA3.1 (+). Neo vector (pcDNA3.CAD1) was a gift from Dr. C. Gottardi (North Western University Medical School, Chicago, IL (Bos, et al. 2009, Nature 459:1005-1009); the cDNA of β4 integrin, cloned into a PRK5 plasmid (pRK5.ITB4), was purchased from Addgene (Cambridge, MA); the cDNA of human α6A integrin, inserted in pLXSN plasmid (pLα6SN (Kuo et al. 1995, Proc Natl Acad Sci USA, 92:12085-12089), was a gift of Dr. A. Magrelli (La Sapienza University, Rome, Italy). The latter was PCR-amplified with the following primer pair: • 5'-[…]-3' (SEQ ID No 28) and • 5'-[…]-3' (SEQ ID No 29) and subcloned into a pcDNA3.1 (+). Hygro vector between HindIII and ApaI sites to obtain the pcDNA3.ITA6A plasmid. […]
(§2) Adhesion, proliferation, and migration assays. […] Adhered cells were counted manually under a light microscope.

[10] = tested on: LS-174T cells; test: Hepatic colonization model, intrahepatic injection of CRC cells; format: in vivo, CD-1 nude mice; conditions: 5x10^6 cells/mouse injected with 100 µM soluble peptide, 14 days, versus vehicle
Method: Animal models of human metastatic CRC. Six-week female CD1-nude mice were purchased from Charles River (Lecco, Italy). Animals were subjected to intraperitoneal anaesthesia with a mixture composed by 0.75 mg/ml xylazine (Xilor®, BIO98, Milan, Italy), 1 mg/ml tiletamine - 1mg/ml zolazepam (Zoletil®, Virbac, Milan, Italy), in physiological solution. After the mice were deeply asleep, a midline incision was performed and target organs were gently exposed. Two or five million suspended cells were injected in 50 µl of culture medium intrasplenically (Tibbettset al. 1993. Cancer, 71:315-321) or into the median liver lobe (Grothey, et al. 2009. Nat Rev Clin Oncol, 6:507-518), respectively. To investigate a pharmacological intervention on liver homing and/or colonization of CRC cells, animals were divided in two arms, receiving medium alone (vehicle) or supplemented with 100 µM […] peptide. The wound was closed by a double suture and each animal was given 0.1 mg caprofen (Rymadil®, Pfizer, Milan, Italy) in a physiological solution to allow post-operative pain relief and rehydration. Mice were strictly monitored until completely awake, and oral ampicillin was administered for 5 days following the surgery. […] External metastatic areas were quantified using ImageJ software.

[11] = tested on: HCCM-1544; test: Liver homing model, intrasplenic implantation; format: in vivo, CD-1 nude mice; conditions: 2x10^6/mouse intrasplenically with 100 µM soluble peptide, versus vehicle
Method: (§3) Animal models of human metastatic CRC. Six-week female CD1-nude mice were purchased from Charles River (Lecco, Italy). Animals were subjected to intraperitoneal anaesthesia with a mixture composed by 0.75 mg/ml xylazine (Xilor®, BIO98, Milan, Italy), 1 mg/ml tiletamine - 1mg/ml zolazepam (Zoletil®, Virbac, Milan, Italy), in physiological solution. After the mice were deeply asleep, a midline incision was performed and target organs were gently exposed. Two or five million suspended cells were injected in 50 µl of culture medium intrasplenically (Tibbettset al. 1993. Cancer, 71:315-321) or into the median liver lobe (Grothey, et al. 2009. Nat Rev Clin Oncol, 6:507-518), respectively. To investigate a pharmacological intervention on liver homing and/or colonization of CRC cells, animals were divided in two arms, receiving medium alone (vehicle) or supplemented with 100 µM […] peptide. The wound was closed by a double suture and each animal was given 0.1 mg caprofen (Rymadil®, Pfizer, Milan, Italy) in a physiological solution to allow post-operative pain relief and rehydration. Mice were strictly monitored until completely awake, and oral ampicillin was administered for 5 days following the surgery. Mice were euthanized at the indicated time points, and organs were photographed with a PL-200 digital photocamera (Samsung Electronics, Milan, Italy). External metastatic areas were quantified using ImageJ software.

[12] = tested on: LS-174T; test: Liver homing model, intrasplenic implantation; format: in vivo, CD-1 nude mice; conditions: 2x10^6/mouse intrasplenically with 100 µM soluble peptide, versus vehicle
Method: as §3

[13] = tested on: HCT-116m; test: Liver homing model, intrasplenic implantation; format: in vivo, CD-1 nude mice; conditions: 2x10^6/mouse intrasplenically with 100 µM soluble peptide, versus vehicle; 20 days
Method: as §3

[14] = tested on: DLD-1; test: Liver homing model, intrasplenic implantation; format: in vivo, CD-1 nude mice; conditions: 2x10^6/mouse intrasplenically with 100 µM soluble peptide, versus vehicle; effect stated as not significant in this model
Method: as §3

[15] = tested on: SW-48; test: Liver homing model, intrasplenic implantation; format: in vivo, CD-1 nude mice; conditions: 2x10^6/mouse intrasplenically with 100 µM soluble peptide, versus vehicle
Method: as §3

[16] = target: T2, α6 integrin/E-cadherin (Homo sapiens, UniProt P12830+P23229); test: Confocal imaging of α6 integrin and E-cadherin in explanted liver tumor tissues; format: in vivo, CD-1 nude mice; conditions: LS-174T liver tumors, cells injected with soluble peptide, 14 days
T2 construct: subjected to immunostaining with anti-α6 integrin and anti-E-cadherin antibodies followed by confocal microscopic imaging; endogenous in cells; host or cells: human CRC cells (LS-174T; also HCT-116m, SW-48, DLD-1, HT-29) xenografted into the liver of CD-1 nude mice
Method: Immunostaining. OCT-frozen tissues were cut in 10 µm sections, paraffin-embedded tissues in 5 µm sections. For immunostaining of cell lines, 10^4 cells were plated on a SuperFrost Plus glass slide (Menzel-Glaser, Braunschweig, Germany) and were grown for 24 hours followed by fixation in 4% paraformaldehyde in PBS for 5 minutes at room temperature. Immunostaining was performed according to standard protocols. Fluorescent images were acquired with either a DMIRE2 confocal microscope or with a DMI 3000D microscope equipped with a DFC 360FX digital camera (all from Leica. Visible images were acquired with either an EC3 Leica (immunostaining of frozen tissues) or a High-Performance IEEE 1394 FireWire Digital CCD Camera (QIMAGING, Surrey, BC, Canada) (immunostaining of paraffin-embedded tissues). For the quantification of specific fluorescent signals, 3 confocal images (1024x1024 pixels, equivalent to 375x375 µm) for each sample, acquired by keeping all the parameters constant, were divided in two 8-bit images corresponding to the red and green fluorescence channels. […]
Animal models of human metastatic CRC. […] Mice were strictly monitored until completely awake, and oral ampicillin was administered for 5 days following the surgery. […] External metastatic areas were quantified using ImageJ software.

[17] = tested on: NCI-H630 cells; test: Cell adhesion to peptides and proteins coated on microwells; format: cell-based, human
From the text: Preparation of cell lines with silenced expression of the MTS-tageted genes. A transient gene silencing approach was applied to cells used exclusively for short-term, in vitro experiments. NCI-H630 cells were transduced with ON-TARGETplus SmartPOOL siRNA for ITGA6 and CDH1, or with control siRNA (Dharmacon, Lafayette, CO). For each experimental point, 2x10^5 cells were reverse-transfected with either control, ITGA6, CDH1, or both siRNA pools, according to the manufacturer's protocol. To quantify the downmodulation of targeted genes, RNA and protein levels were evaluated after 24 and 72 hours, respectively. A stable gene silencing approach was preferred for cells used for long-term, in vivo experiments. For this purpose, 2x10^5 HCT-116m, SW-48, HT-29, or DLD-1 cells were transfected with shRNA plasmid pools targeting ITGA6 (sc-43129-SH) or CDH1 (sc-35242-SH), or with non-targeting control shRNA plasmid pool A (sc-108060) (all from Santa Cruz Biotechnologies), according to the manufacturer's protocol. Following selection in medium supplemented with 2.5 µg/ml puromycin, 6 clones for each experimental point were subjected to dotblot analysis to confirm selective protein down-regulation. […]
as §2

T1 sequence (P16144 28-1822): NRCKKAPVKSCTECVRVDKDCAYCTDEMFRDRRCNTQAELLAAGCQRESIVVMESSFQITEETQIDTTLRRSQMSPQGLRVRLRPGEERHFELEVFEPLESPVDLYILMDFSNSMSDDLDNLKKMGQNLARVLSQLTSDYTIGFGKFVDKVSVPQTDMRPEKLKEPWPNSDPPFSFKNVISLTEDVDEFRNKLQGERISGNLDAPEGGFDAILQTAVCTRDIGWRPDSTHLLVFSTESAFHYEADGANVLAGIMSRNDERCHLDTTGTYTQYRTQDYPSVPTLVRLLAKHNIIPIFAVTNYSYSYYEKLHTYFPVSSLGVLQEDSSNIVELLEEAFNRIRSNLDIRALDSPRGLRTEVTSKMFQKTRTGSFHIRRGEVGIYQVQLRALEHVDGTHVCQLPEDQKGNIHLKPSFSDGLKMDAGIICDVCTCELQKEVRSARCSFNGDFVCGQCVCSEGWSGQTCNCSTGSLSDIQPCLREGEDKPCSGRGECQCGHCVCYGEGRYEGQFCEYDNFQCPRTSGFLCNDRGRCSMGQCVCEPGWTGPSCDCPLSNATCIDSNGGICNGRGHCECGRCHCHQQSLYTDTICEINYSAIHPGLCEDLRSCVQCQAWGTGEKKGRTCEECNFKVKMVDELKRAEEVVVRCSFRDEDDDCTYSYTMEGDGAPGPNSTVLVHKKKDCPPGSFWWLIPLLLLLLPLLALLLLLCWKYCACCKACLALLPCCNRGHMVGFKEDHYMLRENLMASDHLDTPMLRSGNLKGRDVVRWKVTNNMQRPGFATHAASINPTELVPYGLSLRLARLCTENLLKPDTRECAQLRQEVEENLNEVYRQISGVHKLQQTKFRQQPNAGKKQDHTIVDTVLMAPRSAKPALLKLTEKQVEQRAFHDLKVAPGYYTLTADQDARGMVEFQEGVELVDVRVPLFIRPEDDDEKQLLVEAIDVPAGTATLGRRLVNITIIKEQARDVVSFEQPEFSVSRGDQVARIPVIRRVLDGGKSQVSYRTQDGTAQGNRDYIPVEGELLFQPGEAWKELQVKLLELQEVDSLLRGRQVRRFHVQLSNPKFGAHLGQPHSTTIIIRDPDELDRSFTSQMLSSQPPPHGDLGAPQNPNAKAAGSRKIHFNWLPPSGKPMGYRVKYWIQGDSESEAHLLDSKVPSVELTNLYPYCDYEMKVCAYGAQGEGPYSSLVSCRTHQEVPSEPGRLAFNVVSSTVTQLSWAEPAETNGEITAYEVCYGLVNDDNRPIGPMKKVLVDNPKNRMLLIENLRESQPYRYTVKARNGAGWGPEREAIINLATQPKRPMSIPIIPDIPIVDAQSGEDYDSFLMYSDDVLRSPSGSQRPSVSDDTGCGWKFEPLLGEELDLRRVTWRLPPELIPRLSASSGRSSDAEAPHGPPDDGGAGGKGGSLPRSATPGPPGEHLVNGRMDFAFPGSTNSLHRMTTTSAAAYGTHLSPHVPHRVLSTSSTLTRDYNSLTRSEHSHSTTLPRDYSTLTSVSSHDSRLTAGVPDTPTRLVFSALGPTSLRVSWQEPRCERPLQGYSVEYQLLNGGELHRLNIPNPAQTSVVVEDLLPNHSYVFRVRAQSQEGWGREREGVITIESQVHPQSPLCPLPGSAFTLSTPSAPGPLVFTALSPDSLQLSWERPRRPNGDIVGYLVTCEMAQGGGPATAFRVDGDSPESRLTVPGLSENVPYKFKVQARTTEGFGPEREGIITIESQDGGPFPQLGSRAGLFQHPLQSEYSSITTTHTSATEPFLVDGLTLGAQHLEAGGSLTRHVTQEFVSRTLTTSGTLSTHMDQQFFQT
T1 sequence (P23229 24-1073 isoform P23229-2 limits assumed): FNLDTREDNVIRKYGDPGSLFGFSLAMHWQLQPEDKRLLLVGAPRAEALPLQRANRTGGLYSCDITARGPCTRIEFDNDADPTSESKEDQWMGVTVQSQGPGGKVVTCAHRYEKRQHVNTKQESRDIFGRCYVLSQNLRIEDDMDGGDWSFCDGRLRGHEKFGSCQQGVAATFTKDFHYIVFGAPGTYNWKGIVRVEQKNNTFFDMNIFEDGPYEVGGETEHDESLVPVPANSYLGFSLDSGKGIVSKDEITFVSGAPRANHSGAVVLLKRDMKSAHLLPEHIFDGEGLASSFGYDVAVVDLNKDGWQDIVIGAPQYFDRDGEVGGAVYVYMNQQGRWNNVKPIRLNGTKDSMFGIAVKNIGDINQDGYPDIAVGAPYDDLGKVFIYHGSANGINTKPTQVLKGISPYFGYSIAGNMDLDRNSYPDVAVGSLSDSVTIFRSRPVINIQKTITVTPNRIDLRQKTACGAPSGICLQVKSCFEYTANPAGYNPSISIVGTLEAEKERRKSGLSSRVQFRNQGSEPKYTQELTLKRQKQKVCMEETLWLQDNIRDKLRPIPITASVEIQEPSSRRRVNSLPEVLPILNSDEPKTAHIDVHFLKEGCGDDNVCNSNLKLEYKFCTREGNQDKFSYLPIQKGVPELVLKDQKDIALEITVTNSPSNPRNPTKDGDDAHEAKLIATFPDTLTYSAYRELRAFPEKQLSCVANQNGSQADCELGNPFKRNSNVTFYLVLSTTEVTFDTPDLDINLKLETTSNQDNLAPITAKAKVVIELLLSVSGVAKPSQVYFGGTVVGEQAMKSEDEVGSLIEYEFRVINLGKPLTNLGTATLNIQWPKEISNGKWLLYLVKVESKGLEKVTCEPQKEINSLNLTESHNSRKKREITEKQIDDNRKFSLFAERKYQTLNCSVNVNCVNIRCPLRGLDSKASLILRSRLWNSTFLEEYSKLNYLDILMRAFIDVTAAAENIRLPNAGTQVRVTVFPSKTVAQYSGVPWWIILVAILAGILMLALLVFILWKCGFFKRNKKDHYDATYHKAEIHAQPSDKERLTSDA
T2 sequence (P23229 24-1073 isoform P23229-2 limits assumed): as above
T2 sequence (P12830 155-882): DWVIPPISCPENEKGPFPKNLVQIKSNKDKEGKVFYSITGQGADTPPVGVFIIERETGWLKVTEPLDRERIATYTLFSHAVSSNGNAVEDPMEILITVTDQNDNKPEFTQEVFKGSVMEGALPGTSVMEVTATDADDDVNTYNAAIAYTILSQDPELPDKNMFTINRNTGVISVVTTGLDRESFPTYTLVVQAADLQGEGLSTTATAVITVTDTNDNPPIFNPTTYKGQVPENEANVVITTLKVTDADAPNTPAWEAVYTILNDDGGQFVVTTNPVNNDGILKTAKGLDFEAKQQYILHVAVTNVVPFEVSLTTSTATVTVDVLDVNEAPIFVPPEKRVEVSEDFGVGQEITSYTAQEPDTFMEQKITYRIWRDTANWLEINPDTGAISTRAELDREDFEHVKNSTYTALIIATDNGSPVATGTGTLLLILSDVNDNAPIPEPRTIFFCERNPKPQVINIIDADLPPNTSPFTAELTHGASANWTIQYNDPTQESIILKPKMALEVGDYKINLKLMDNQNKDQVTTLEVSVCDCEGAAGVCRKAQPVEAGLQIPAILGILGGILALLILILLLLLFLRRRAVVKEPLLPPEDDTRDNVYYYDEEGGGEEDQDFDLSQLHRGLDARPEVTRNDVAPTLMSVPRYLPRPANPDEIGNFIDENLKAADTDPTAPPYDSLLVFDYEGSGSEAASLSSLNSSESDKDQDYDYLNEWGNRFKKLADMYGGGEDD
T2 sequence (P16144 28-1822 partner): as the sequence (P16144 28-1822) above

CGIYRLRSC [Targeting synthetic LRS-motif peptide, from New England Peptides]
proliferation [1]: no effects | enrichment of integrin subunit in peptide- and phage-targeted protein fractions [2]: substantial enrichment in the β4 subunit | adhesiveness on hepatic tissues [3]: significantly inhibited | cell adhesion to human liver sections [4]: significant decrease in cell adhesion | adhesion to normal hepatic tissues [5]: not influenced | adhesiveness on hepatic tissues [6]: significantly inhibited | adhesiveness on hepatic tissues [7]: significantly inhibited | adhesiveness on hepatic tissues [8]: significantly inhibited | liver adhesion [9]: inhibited liver adhesion of U293 cells only when they concomitantly expressed α6 integrin and E-cadherin | liver tumors (external tumor areas) [10]: significant reduction of liver tumors | homing of CRC cells to the liver (external metastatic areas) [11]: diminished homing of CRC cells to the liver, which was significant | homing of CRC cells to the liver (external metastatic areas) [12]: diminished homing of CRC cells to the liver, which was significant | homing of CRC cells to the liver (external metastatic areas) [13]: diminished homing of CRC cells to the liver, which was significant | homing of CRC cells to the liver (external metastatic areas) [14]: diminished homing of CRC cells to the liver | homing of CRC cells to the liver (external metastatic areas) [15]: diminished homing of CRC cells to the liver, which was significant | overall morphology and levels of receptor complex in the tumors [16]: unchanged | adherence of cells to microwells coated with the peptide ([17]; NCI-H630 cells in which ITGA6 or both mRNAs were silenced, 1 µg substrate per well, 1 hour): impaired adherence | adherence of cells to microwells coated with the peptide ([17]; NCI-H630 cells with both α6 integrin and E-cadherin downmodulated): particularly pronounced
